# Results from patent publication US6391339B1, “Use of oligosaccharide for preventing blood clotting in extracorporeal blood circuits” (Akzo Nobel N.V., priority 1997, dated 2002).
# Tested on: patients undergoing chronic intermittent haemodialysis
# Settings: 12 haemodialysis patients; half an hour before the end of the last dialysis
# Procedure: The study consisted of 2 phases (block A and block B). In block A, 10 mg of Org 31540/SR 90107 A was administered. Thereafter, in block B, 8, 6, and 4 mg of Org 31540/SR 90107 A were used.
# Medication was given as an intravenous bolus predialysis for 1 dialysis each week. Efficacy was assessed by determining patency of the dialyzer, buffer and bubble chamber, every hour during dialysis by visual examination and by blood sampling of specific coagualtion, heamatologic and biochemical parameters. Anti-Xa plasma samples, to determine pharmacokinetics, were taken every hour during dialysis and 1 hour after dialysis and daily for 3 days post-dialysis. Safety was assessed by evaluating major and minor bleeding complications each dialysis.
smiles,measurement,value
"CO[C@H]1O[C@H](COS(=O)(=O)O)[C@@H](O[C@@H]2O[C@@H](C(=O)O)[C@@H](O[C@H]3O[C@H](COS(=O)(=O)O)[C@@H](O[C@@H]4O[C@H](C(=O)O)[C@@H](O[C@H]5O[C@H](COS(=O)(=O)O)[C@@H](O)[C@H](O)[C@H]5NS(=O)(=O)O)[C@H](O)[C@H]4O)[C@H](OS(=O)(=O)O)[C@H]3NS(=O)(=O)O)[C@H](O)[C@H]2OS(=O)(=O)O)[C@H](O)[C@H]1NS(=O)(=O)O [Org 31540/SR 90107 A, methyl O—(2-deoxy-2-sulphoamino-6-O-suplho-α-D-glucopyranosyl)-(1→4)—O—(β-D-glucopyranosyluronic acid)-(1→4)—O—(2-deoxy-2-sulphoamino-3,6-di-O-sulpho-α-D-glucopyranosyl)-(1→4)—O—(2-O-sulpho-α-L-idopyranosyluronic acid)-(1→4)-2-deoxy-2-sulphoamino-6-O-sulpho-α-D-glucopyranoside]",clot in the buffer chamber making dialysis impossible,Only in one patient
